Where “and” joins values, the source holds several entries; their conditions need not be identical. Identical values can stand only once. Inconclusive results and toxic doses are left out.

The test system of the experiment is BALB/cJ mice, ADJ-PC-6 ip tumor, median survival T/C. The experiment can be described thus: NCI In Vivo Anticancer Drug Screen. Data for tumor model ADJ-PC-6 (intraperitoneal) in BALB/cJ mice. As to conditions: endpoint: median survival time, higher = longer survival. As to the method: The antitumor activity of compounds was measured in mice bearing transplantable tumors. Survival or tumor size were measured and the results are expressed as the measurement made in the treated group (T) divided by the measurement made in the vehicle treated control group (C). The tumor model used in this assay is ADJ-PC-6 (intraperitoneal) in BALB/cJ mice

Where [1] appears, read: dose: 50.0 mg/kg/injection, schedule: Q01DX009 (ip), vehicle: saline with Tween-80.
Setting [2] is: dose: 100.0 mg/kg/injection, schedule: Q01DX009 (ip), vehicle: saline with Tween-80.
Where [3] appears, read: dose: 200.0 mg/kg/injection, schedule: Q01DX009 (ip), vehicle: saline with Tween-80.

In the case of `CNc1nc(N(C)C)nc(N(C)C)n1`, the T/C by setting is: (dose: 19.4 mg/kg/injection, schedule: Q01DX014 (ip), vehicle: saline) 101 % of control; (dose: 19.4 mg/kg/injection, schedule: Q01DX014 (sc), vehicle: saline) 100 % of control and 105 % of control; (dose: 32.4 mg/kg/injection, schedule: Q01DX014 (sc), vehicle: saline) 152 % of control; (dose: 54.0 mg/kg/injection, schedule: Q01DX014 (ip), vehicle: saline) 150 % of control; (dose: 54.0 mg/kg/injection, schedule: Q01DX014 (sc), vehicle: saline) 208 % of control; (dose: 90.0 mg/kg/injection, schedule: Q01DX014 (ip), vehicle: saline) 181 % of control and 297 % of control. Moreover, the T/C (dose: 90.0 mg/kg/injection, schedule: Q01DX014 (sc), vehicle: saline) is 213 % of control and 243 % of control; the T/C (dose: 150.0 mg/kg/injection, schedule: Q01DX014 (ip), vehicle: saline) was 45 % of control.

`CO[C@H](C(=O)[C@@H](O)[C@@H](C)O)[C@@H]1Cc2cc3cc(OC4CC(OC5CC(O)C(O)C(C)O5)C(O)C(C)O4)c(C)c(O)c3c(O)c2C(=O)[C@H]1OC1CC(OC2CC(OC3CC(C)(O)C(O)C(C)O3)C(O)C(C)O2)C(O)C(C)O1` (stereo not given in full): the T/C (dose: 0.13 mg/kg/injection, schedule: Q04DX003 (ip), vehicle: clinical formulation) was 104 % of control; the T/C (dose: 0.25 mg/kg/injection, schedule: Q04DX003 (ip), vehicle: clinical formulation) was 108 % of control; the T/C (dose: 125.0 micrograms/kg/injection, schedule: Q04DX003 (ip), vehicle: saline) is 100 % of control.

As for `CS(=O)(=O)c1ncc(Br)cn1`, the T/C by setting is: (dose: 25.0 mg/kg/injection, schedule: Q01DX009 (ip), vehicle: saline with Tween-80) 105 % of control; under setting [1], 105 % of control; under setting [2], 118 % of control; under setting [3], 100 % of control.

Regarding `C(=N/NC1=NCCN1)/c1c2ccccc2c(/C=N\NC2=NCCN2)c2ccccc12`, the T/C was 253 % of control (dose: 3.75 mg/kg/injection, schedule: Q04DX003 (ip), vehicle: saline); 235 % of control (dose: 3.75 mg/kg/injection, schedule: Q04DX003 (ip), vehicle: water); 204 % of control (dose: 7.5 mg/kg/injection, schedule: Q04DX003 (ip), vehicle: saline); 235 % of control (dose: 7.5 mg/kg/injection, schedule: Q04DX003 (ip), vehicle: water); 253 % of control (dose: 15.0 mg/kg/injection, schedule: Q04DX003 (ip), vehicle: saline); 235 % of control (dose: 15.0 mg/kg/injection, schedule: Q04DX003 (ip), vehicle: water). The T/C reads like this: (dose: 30.0 mg/kg/injection, schedule: Q04DX003 (ip), vehicle: saline) 225 % of control; (dose: 30.0 mg/kg/injection, schedule: Q04DX003 (ip), vehicle: water) 235 % of control; (dose: 60.0 mg/kg/injection, schedule: Q04DX003 (ip), vehicle: saline) 267 % of control.

Take `CN(C)/N=N/c1nc[nH]c1C(N)=O`: the T/C runs as follows: under setting [1], 99 % of control; (dose: 50.0 mg/kg/injection, schedule: Q04DX003 (ip), vehicle: saline with Tween-80) 335 % of control and 471 % of control; under setting [2], 110 % of control; under setting [3], 105 % of control; (dose: 200.0 mg/kg/injection, schedule: Q04DX003 (ip), vehicle: Klucel (hydroxypropylcellulose) (HPC)) 216 % of control and 275 % of control; (dose: 200.0 mg/kg/injection, schedule: Q04DX003 (ip), vehicle: saline with Tween-80) 335 % of control and 471 % of control. Also, the T/C reads like this: (dose: 400.0 mg/kg/injection, schedule: Q04DX003 (ip), vehicle: Klucel (hydroxypropylcellulose) (HPC)) 275 % of control and 369 % of control; (dose: 400.0 mg/kg/injection, schedule: Q04DX003 (ip), vehicle: saline with Tween-80) 227 % of control and 335 % of control and 471 % of control.

On to `CN(C)c1nc(N(C)C)nc(N(C)C)n1`, for which the T/C by setting is: (dose: 20.0 mg/kg/injection, schedule: Q01DX009 (ip), vehicle: saline with Tween-80) 102 % of control; (dose: 40.0 mg/kg/injection, schedule: Q01DX009 (ip), vehicle: Klucel (hydroxypropylcellulose) (HPC)) 96 % of control; (dose: 40.0 mg/kg/injection, schedule: Q01DX009 (ip), vehicle: saline with Tween-80) 100 % of control.

As to `O=C(O)CCCc1ccc(N(CCCl)CCCl)cc1`, the T/C is 106 % of control (dose: 1.25 mg/kg/injection, schedule: Q04DX003 (ip), vehicle: saline with Tween-80); 102 % of control (dose: 2.0 mg/kg/injection, schedule: Q04DX003 (ip), vehicle: saline with Tween-80); 105 % of control (dose: 2.5 mg/kg/injection, schedule: Q04DX003 (ip), vehicle: saline with Tween-80); 102 % of control (dose: 4.0 mg/kg/injection, schedule: Q04DX003 (ip), vehicle: saline with Tween-80); 105 % of control (dose: 5.0 mg/kg/injection, schedule: Q04DX003 (ip), vehicle: saline with Tween-80); 122 % of control (dose: 8.0 mg/kg/injection, schedule: Q04DX003 (ip), vehicle: saline with Tween-80). In addition, the T/C is, setting by setting: (dose: 16.0 mg/kg/injection, schedule: Q04DX003 (ip), vehicle: saline with Tween-80) 173 % of control; (dose: 20.0 mg/kg/injection, schedule: Q04DX003 (ip), vehicle: saline with Tween-80) 260 % of control; (dose: 32.0 mg/kg/injection, schedule: Q04DX003 (ip), vehicle: saline with Tween-80) 189 % of control.

With `Nc1nc(F)nc2c1ncn2C1OC(COP(=O)(O)O)C(O)C1O` (stereo not given), the T/C (dose: 25.0 mg/kg/injection, schedule: Q01DX009 (ip), vehicle: saline) was 90 % of control; the T/C (dose: 50.0 mg/kg/injection, schedule: Q01DX009 (ip), vehicle: saline) is 91 % of control; the T/C (dose: 100.0 mg/kg/injection, schedule: Q01DX009 (ip), vehicle: saline) was 104 % of control.

With `N[C@@H](Cc1ccc(N(CCCl)CCCl)cc1)C(=O)O`, the T/C was 177 % of control (dose: 2.0 mg/kg/injection, schedule: Q04DX003 (ip), vehicle: saline); 203 % of control (dose: 2.5 mg/kg/injection, schedule: Q04DX003 (ip), vehicle: saline); 236 % of control (dose: 4.0 mg/kg/injection, schedule: Q04DX003 (ip), vehicle: saline); 240 % of control (dose: 5.0 mg/kg/injection, schedule: Q04DX003 (ip), vehicle: saline); 230 % of control (dose: 8.0 mg/kg/injection, schedule: Q04DX003 (ip), vehicle: saline); 335 % of control (dose: 10.0 mg/kg/injection, schedule: Q04DX003 (ip), vehicle: saline). Besides, the T/C (dose: 16.0 mg/kg/injection, schedule: Q04DX003 (ip), vehicle: saline) was 307 % of control.

With `CN(Cc1cnc2nc(N)nc(N)c2n1)c1ccc(C(=O)N[C@@H](CCC(=O)O)C(=O)O)cc1`, the T/C is, setting by setting: (dose: 1.25 mg/kg/injection, schedule: Q04DX003 (ip), vehicle: sodium bicarbonate) 97 % of control; (dose: 2.5 mg/kg/injection, schedule: Q04DX003 (ip), vehicle: sodium bicarbonate) 110 % of control; (dose: 5.0 mg/kg/injection, schedule: Q04DX003 (ip), vehicle: sodium bicarbonate) 104 % of control and 111 % of control; (dose: 10.0 mg/kg/injection, schedule: Q04DX003 (ip), vehicle: sodium bicarbonate) 124 % of control; (dose: 20.0 mg/kg/injection, schedule: Q04DX003 (ip), vehicle: sodium bicarbonate) 93 % of control and 124 % of control; (dose: 40.0 mg/kg/injection, schedule: Q04DX003 (ip), vehicle: sodium bicarbonate) 156 % of control.

As to `CC1OC(=O)C(C(C)C)NC(=O)C(C(C)C)OC(=O)C(C(C)C)NC(=O)C(C)OC(=O)C(C(C)C)NC(=O)C(C(C)C)OC(=O)C(C(C)C)NC(=O)C(C)OC(=O)C(C(C)C)NC(=O)C(C(C)C)OC(=O)C(C(C)C)NC1=O` (stereo not given), the T/C is, setting by setting: (dose: 0.75 mg/kg/injection, schedule: Q04DX003 (ip), vehicle: Klucel (hydroxypropylcellulose) (HPC)) 87 % of control; (dose: 1.5 mg/kg/injection, schedule: Q04DX003 (ip), vehicle: Klucel (hydroxypropylcellulose) (HPC)) 102 % of control; (dose: 2.0 mg/kg/injection, schedule: Q01DX009 (ip), vehicle: Klucel (hydroxypropylcellulose) (HPC)) 100 % of control; (dose: 4.0 mg/kg/injection, schedule: Q01DX009 (ip), vehicle: Klucel (hydroxypropylcellulose) (HPC)) 104 % of control; (dose: 8.0 mg/kg/injection, schedule: Q01DX009 (ip), vehicle: Klucel (hydroxypropylcellulose) (HPC)) 185 % of control.

(Values after PubChem BioAssay AID184 (DTP/NCI, 2004).)
